Measured values published in patent publication US20060004088A1, “Furan derivatives for preventing and curing osteoporosis and pharmaceutical compositions containing the same” (OCT INC., priority 2002, published 2006).
Entries after “also recorded” stand apart in the source; their conditions may differ.

Legend:
[1] = tested on: female white mice with osteoporosis induced by ovariectomy; test: Preventive effect 1 on osteoporosis, tibia histology, oral administration; format: in vivo; conditions: oral for four weeks immediately after ovariectomy
Procedure: In order to evaluate effects of the compound of the present invention on treatment and prevention of osteoporosis, female white mice with osteoporosis induced by ovariectomy were used as a disease model. After ovariectomy, mice were administered with the compound of the present invention. Tibias were dissected from the mice, and observed histologically.
After anesthetizing female white mice with 100 mg/kg of Ketamine (Ketara) and 0.15 ml/kg of 2% Xylazine (Rompun), the lumbar dorsum is shaved bilaterally and the exposed skin was prepared for aseptic surgery by a 10% povidone-iodine scrub followed by a 70% alcohol wipe.
A 1-cm incision was made in the central region of the abdomen, and the ovary was identified along with the uterus with caution not to damage the main organs such as the liver and diaphragm. After ligating the uterus with a thread for suturing, the exposed ovary was severed toward both sides and removed. Thereafter, each organ was relocated to its original position, and the incision was closed with a thread for suturing in an interrupted pattern. […]
The daily dosage of the Compound 1 per female white mouse was determined based on 250 g body weight. […] With caution not to exchange the water bottles between the groups, everyday, the number of mice was recorded, and the mixture was prepared based on the number of mice. […]

[2] = tested on: ovariectomized female white mice; test: Preventive effect on osteoporosis, bone mineral densitometer; format: in vivo; conditions: for Change in BMD, %: oral 10 mg per mouse
Procedure: After ovariectomy, female white mice weighing about 250 g were orally administered with 10 mg of the Compound 1 per mice for four weeks. Bone mineral density (BMD) was measured before the ovariectomy and every week during the administration of the Compound 1, using a bone mineral densitometer, XCT 540 Research SA made in Germany.
After anesthetizing the mice being bred in cages by intraperitoneal injection of a mixture of Ketamine HCl (ketara 10 mg/kg) and 2% xylazine HCl (Roupun 0.15 ml/kg), BMD measurement was made at a voxel size of 0.1×0.1 mm^2 and threshold value 280 mg/cm^2 for cancellous bone and 500 mg/cm^2 for compact bone. The analysis sites at the proximal tibias were determined by Scout scans (10 mm/sec), and BMD was measured at three slices at the determined sites by CT scans (7 mm/sec). BMD measurement was performed twice or more at the same every week during four weeks.

SMILES: O=Cc1ccc(CO)o1 [Compound 1, 5-hydroxymethylfuran-2-carboxyaldehyde]
- cortical and trabecular bone compared to the control group, 40× magnification [1]: marked increase in the cortical and trabecualr bone
- trabecular bone loss in tibia, light microscopy ([1]; 10 mg/day, 12.5× and 40× magnification): such trabecular bone loss was not observed; also recorded: no trabecular bone loss
- BMD after four weeks of administration compared to before ovariectomy (in words) ([2]; oral 10 mg/day for four weeks after ovariectomy): increase in BMD; also recorded: remarkably increased bone mineral density (BMD)
- Change in BMD, % ([2]; week 1 after ovariectomy, control −7.5): −2.5%
- Change in BMD, % ([2]; week 2 after ovariectomy, control −11.6): −3.2%
- Change in BMD, % ([2]; week 3 after ovariectomy, control −14.9): −1.8%
- Change in BMD, % ([2]; week 4 after ovariectomy, control −18.6): 3.7%
